Results: patent US20110257168A1, “DERIVATIVES OF OXABISPIDINE AS NEURONAL NICOTINIC ACETYLCHOLINE RECEPTOR LIGANDS” (Targacept, Inc., priority 2008, published 2011)
Where two headings read alike, the source gives them in different places.

Experiments:
[1] = target: T1, Human α7 (Homo sapiens, UniProt P36544); test: Competition binding to human α7 receptors in membrane preparations
T1 construct: host or cells: HEK cells co-expressing RIC3
Procedure: (§1) SH-EP1/human α4β2 (Eaton et al., 2003), SH-EP1/human α4β4 (Gentry et al., 2003), SH-EP1/α6β3β4α5 (Grinevich et al., 2005), TE671/RD and SH-SY5Y cell lines (obtained from Dr. Ron Lukas, Barrow Neurological Institute) were maintained in proliferative growth phase in Dulbecco's modified Eagle's medium (Gibco/BRL) with 10% horse serum (Gibco BRL), 5% fetal bovine serum (HyClone, Logan Utah), 1 mM sodium pyruvate, 4 mM L-glutamine. For maintenance of stable transfectants, the α4β2 and α4β4 cell media was supplemented with 0.25 mg/mL zeocin and 0.13 mg/mL hygromycin B. Selection was maintained for the α6β3β4α5 cells with 0.25 mg/mL of zeocin, 0.13 mg/mL of hygromycin B, 0.4 mg/mL of geneticin, and 0.2 mg/mL of blasticidin. HEK/human α7/RIC3 cells (obtained from J. Lindstrom, U. Pennsylvania) were maintained in proliferative growth phase in Dulbecco's modified Eagle's medium (Gibco/BRL) with 10% fetal bovine serum (HyClone, Logan Utah), 1 mM sodium pyruvate, 4 mM L-glutamine, 0.4 mg/mL geneticin; 0.2 mg/ml hygromycin B.
(§2) Preparation of membranes from rat tissues. Rat cortices were obtained from Analytical Biological Services, Incorporated (ABS, Wilmington, Del.). Tissues were dissected from female Sprague-Dawley rats, frozen and shipped on dry ice. Tissues were stored at −20° C. until needed for membrane preparation. Cortices from 10 rats were pooled and homogenized by Polytron (Kinematica GmbH, Switzerland) in 10 volumes (weight:volume) of ice-cold preparative buffer (KCl, 11 mM; KH2PO4, 6 mM; NaCl 137 mM; Na2HPO4 8 mM; HEPES (free acid), 20 mM; iodoacetamide, 5 mM; EDTA, 1.5 mM; 0.1 mM PMSF pH 7.4). The resulting homogenate was centrifuged at 40,000 g for 20 minutes at 4° C. and the resulting pellet was resuspended in 20 volumes of ice-cold water. After 60-minute incubation at 4° C., a new pellet was collected by centrifugation at 40,000 g for 20 minutes at 4° C. The final pellet was resuspended in preparative buffer and stored at −20° C. On the day of the assay, tissue was thawed, centrifuged at 40,000 g for 20 minutes and then resuspended in PBS (Dulbecco's Phosphate Buffered Saline, Life Technologies, pH 7.4) to a final concentration of 2-3 mg protein/mL. Protein concentrations were determined using the Pierce BCA Protein Assay kit (Pierce Biotechnology, Rockford, Ill.), with bovine serum albumin as the standard. Preparation of membranes from clonal cell lines. Cells were harvested in ice-cold PBS, pH 7.4, then homogenized with a polytron (Brinkmann Instruments, Westbury, N.Y.). Homogenates were centrifuged at 40,000 g for 20 minutes (4° C.). The pellet was resuspended in PBS and protein concentration determined using the Pierce BCA Protein Assay kit (Pierce Biotechnology, Rockford, Ill.).
(§3) Competition binding to receptors in membrane preparations. Binding to nicotinic receptors was assayed on membranes using standard methods adapted from published procedures (Lippiello and Fernandes, 1986; Davies et al., 1999). In brief, membranes were reconstituted from frozen stocks (approximately 0.2 mg protein) and incubated for 2 h on ice in […] assay buffer (PBS) in the presence of competitor compound (0.001 nM to […]) and radioligand. [^3H]-nicotine (L-(−)-[N-methyl-3H]-nicotine, 69.5 Ci/mmol, Perkin-Elmer Life Sciences) was used for human α4β2 binding studies. [^3H]-epibatidine (52 Ci/mmol, Perkin-Elmer Life Sciences) was used for binding studies at the other receptor subtypes. Incubation was terminated by rapid filtration on a multimanifold tissue harvester (Brandel, Gaithersburg, Md.) using GF/B filters presoaked in 0.33% polyethyleneimine (w/v) to reduce non-specific binding. Filters were washed 3 times and the radioactivity retained was determined by liquid scintillation counting.
(§4) Binding data analysis. Binding data were expressed as percent total control binding. Replicates for each point were averaged and plotted against the log of drug concentration. […]

[2] = tested on: male ICR mice; test: Formalin test (2.5%) in mice; type: in vivo
Procedure: The formalin test in mice is a valid and reliable model of nociception and is sensitive for various classes of analgesic drugs. The noxious stimulus is an injection of dilute formalin (1% in saline) under the skin of the dorsal surface of the right hindpaw. The response is the amount of time the animals spend licking the injected paw. Two distinct periods of high licking activity can be identified, an early phase lasting the first 5 min and a late phase lasting from 20 to 30 min after the injection of formalin. See, Hunskaar et al., Pain, 1987, July; 30(1):103-14, incorporated by reference with regard to the test.
A formalin test was carried out in an open Plexiglas cage, with a mirror placed under the floor to allow an unobstructed view of the paws. Mice were allowed to acclimate for 15 min in the test cage before formalin injection. Each animal was injected with 20 μl of 2.5% formalin in the intraplantar region of the right hindpaw. Mice were then observed 0-5 min (Phase 1) and 20-45 min (Phase 2) post-formalin, and the amount of time spent (expressed in sec) licking the injected paw was recorded. Compound A or vehicle were injected s.c. 15 min before the formalin injection.
FIG. 1 illustrates the effects of Compound A in the formalin test (2.5%) in male ICR mice. As described, subject mice were pretreated with an s.c. injection of Compound A and 15 minutes later received formalin ipl. […] The lowest active dose was 3 mg/kg.

[3] = target: human α4β2 (Homo sapiens, UniProt P17787+P43681); test: Competition binding to human α4β2 receptors in membrane preparations
Procedure: as §1, §2, §3, §4

[4] = target: T2, Rat α7 (Rattus norvegicus, UniProt Q05941); test: Competition binding to rat α7 receptors in membrane preparations
T2 construct: Preparation of membranes from rat tissues; Rat cortices were obtained from Analytical Biological Services; tissue Analytical Biological Services, Incorporated (ABS, Wilmington, Del.); host or cells: rat brain membranes (only cortex is described)
Procedure: as §2, §3
(§5) Binding data analysis. Binding data were expressed as percent total control binding. Replicates for each point were averaged and plotted against the log of drug concentration. The IC50 (concentration of the compound that produces 50% inhibition of binding) was determined by least squares non-linear regression using GraphPad Prism software (GraphPAD, San Diego, Calif.). Ki was calculated using the Cheng-Prusoff equation (Cheng and Prusoff, 1973).

[5] = target: T3, Rat α4β2 (Rattus norvegicus, UniProt P09483+P12390); test: Competition binding to rat α4β2 receptors in membrane preparations
T3 construct: Preparation of membranes from rat tissues; Rat cortices were obtained from Analytical Biological Services; tissue Analytical Biological Services, Incorporated (ABS, Wilmington, Del.); host or cells: rat cortex membranes (female Sprague-Dawley)
Procedure: as §2, §3, §5

[6] = membranes, [3H]-nicotine competition, Ki by Cheng-Prusoff, read-out: human α4β2 Ki
[7] = membranes, [3H]-epibatidine competition, Ki by Cheng-Prusoff, read-out: Human α7 Ki
[8] = membranes, [3H]-epibatidine competition, Ki by Cheng-Prusoff, read-out: Rat α7 Ki

SMILES | Ki [1] | nociceptive behavior (time licking the injected paw), Phase 1 ([2]; 0-5 min post-formalin, s.c. 15 min before formalin, F(1,35)=41.8, P<0.0001) | nociceptive behavior (time licking the injected paw), Phase 2 ([2]; 20-45 min post-formalin, s.c. 15 min before formalin, F(1,35)=24.8, P<0.0001) | lowest active dose ([2]; formalin test, s.c. administration) | effects in formalin test in presence of mecamylamine ([2]; mecamylamine 2 mg/kg) | Ki [3, 6] | Ki [4] | Ki [5] | Ki [1, 7] | Ki [4, 8] | Ki [3] | Ki ([5]; membranes, [3H]-epibatidine competition, Ki by Cheng-Prusoff, read-out: Rat α4β2 Ki)
Fc1cncc(N2CC3CNCC(C2)O3)c1 [Compound A, 3-(5-fluoropyridin-3-yl)-9-oxa-3,7-diazabicyclo[3.3.1]nonane] | 0.076 µM | significantly reduced | significantly reduced | 3 mg/kg | blocked | 0.0018 µM | 0.036 µM | 0.0013 µM | – | – | – | –
c1ncc(N2CC3CNCC(C2)O3)cn1 [3-(pyrimidin-5-yl)-9-oxa-3,7-diazabicyclo[3.3.1]nonane] | – | – | – | – | – | 0.0076 µM | – | 0.008 µM | 2.9 µM | 3.2 µM | – | –
Clc1cncc(N2CC3CNCC(C2)O3)c1 [3-(5-chloropyridin-3-yl)-9-oxa-3,7-diazabicydo[3.3.1]nonane] | – | – | – | – | – | – | – | – | 0.18 µM | 0.37 µM | 0.001 µM | 0.0021 µM
